From ChEMBL document CHEMBL1154744, “HIV-1 protease inhibitors with a transition-state mimic comprising a tertiary alcohol: improved antiviral activity in cells” (J Med Chem, 2010)

How the values were obtained:
[1] = test system: Human immunodeficiency virus 1; test: Antiviral activity against HIV1 infected in human MT4 cells assessed as inhibition of virus-induced cytopathogenicity after 6 days by XTT assay; format: functional, organism-based; conditions: Human immunodeficiency virus 1, MT4, 144 h
[2] = Cytotoxicity against human MT4 cells assessed as decrease in cell proliferation after 5 days by XTT assay; format: cell-based
Protease = Protease (Human immunodeficiency virus 1, UniProt Q9YQ12); test: Inhibition of HIV1 protease expressed in Escherichia coli by fluorometric assay
Protease, sequence (Q9YQ12 whole entry): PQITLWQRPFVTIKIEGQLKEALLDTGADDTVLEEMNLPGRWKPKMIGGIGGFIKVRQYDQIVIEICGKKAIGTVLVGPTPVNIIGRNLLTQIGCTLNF

[3] = Metabolic stability in liver microsomes assessed as intrinsic clearance; format: ADME, Microsome
[4] = test system: Human immunodeficiency virus 1; test: Antiviral activity against HIV1 with protease M46I, V82F, I84V mutant by cell free assay; format: functional, organism-based
[5] = Apparent permeability across human Caco-2 cells; format: ADME, cell-based
[6] = test system: Human immunodeficiency virus 1; test: Antiviral activity against HIV1 with protease G48V, L90M mutant by cell free assay; format: functional, organism-based
[7] = test system: Human immunodeficiency virus 1; test: Antiviral activity against […] HIV1 with protease A71V, I84V L90M mutant by cell free assay; format: functional, organism-based
[8] = test system: Human immunodeficiency virus 1; test: Antiviral activity against HIV1 with protease V32I, M46I V82A mutant by cell free assay; format: functional, organism-based
[9] = test system: Human immunodeficiency virus 1; test: Antiviral activity against HIV1 with protease V32I, M46I A71V, V82A mutant by cell free assay; format: functional, organism-based
[10] = molecular target: Human immunodeficiency virus type 1 protease (Human immunodeficiency virus 1, UniProt Q72874, I84V/L63P/V82T); test: Inhibition of HIV1 protease L63P, V82T, I84V mutant
Human immunodeficiency virus type 1 protease, sequence (Q72874 entry or part of it I84V/L63P/V82T): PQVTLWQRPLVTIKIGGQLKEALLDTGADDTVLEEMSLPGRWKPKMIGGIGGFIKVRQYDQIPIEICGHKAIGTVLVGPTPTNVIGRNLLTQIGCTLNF

Row | Structure (SMILES) | EC50 [1] [nM] | CC50 at 120 h [2] [nM] | Ki (Protease) [nM] | other results
1 | CC(C)CN(C[C@@H](O)[C@H](Cc1ccccc1)NC(=O)O[C@H]1CO[C@H]2OCC[C@H]21)S(=O)(=O)c1ccc(N)cc1 | 4 |  |  | 
2 | COC(=O)N[C@H](C(=O)N(Cc1ccc(Br)cc1)C[C@@](O)(Cc1ccccc1)C(=O)N[C@H]1c2ccccc2C[C@H]1O)C(C)(C)C | > 10000 | > 10000 |  | 
3 | COC(=O)N[C@H](C(=O)NN(Cc1ccccc1)C[C@](O)(Cc1ccccc1)C(=O)N[C@H]1c2ccccc2C[C@H]1O)C(C)(C)C | > 10000 |  | > 5000 | 
4 | COC(=O)N[C@H](C(=O)NN(Cc1ccc(-c2cccnc2)cc1)C[C@@](O)(Cc1ccccc1)C(=O)N[C@H]1c2ccccc2C[C@H]1O)C(C)(C)C |  | > 10000 |  | clearance [3]: 154 µL/min/mg
5 | COC(=O)N[C@H](C(=O)NN(Cc1ccccc1)C[C@@](O)(Cc1ccccc1)C(=O)N[C@H]1c2ccccc2C[C@H]1O)C(C)(C)C | > 10000 |  | > 5000 | 
6 | CC(C)(C)NC(=O)[C@@H]1CN(Cc2cccnc2)CCN1C[C@@H](O)C[C@@H](Cc1ccccc1)C(=O)N[C@H]1c2ccccc2C[C@H]1O | 50 |  |  | 
7 | COC(=O)N[C@H](C(=O)NN(CC[C@](O)(Cc1ccccc1)C(=O)N[C@H]1c2ccccc2C[C@H]1O)Cc1ccc(Br)cc1)C(C)(C)C | > 10000 | > 10000 | > 5000 | 
8 | CNC(=O)[C@@H](NC(=O)[C@](O)(CCN(Cc1ccc(Br)cc1)NC(=O)[C@@H](NC(=O)OC)C(C)(C)C)Cc1ccccc1)C(C)(C)C | > 10000 | > 10000 | 2200 | 
9 | COC(=O)N[C@H](C(=O)NN(CC[C@@](O)(Cc1ccccc1)C(=O)N[C@H]1c2ccccc2C[C@H]1O)Cc1ccc(-c2ccc(NC(C)=O)cc2)cc1)C(C)(C)C | 30 | > 10000 | 1.8 | 
10 | CNC(=O)[C@@H](NC(=O)[C@@](O)(CCN(Cc1ccc(Br)cc1)NC(=O)[C@@H](NC(=O)OC)C(C)(C)C)Cc1ccccc1)C(C)C | 160 | > 10000 | 2.9 | 
11 | COCCNC(=O)[C@@H](NC(=O)[C@@](O)(CCN(Cc1ccc(Br)cc1)NC(=O)[C@@H](NC(=O)OC)C(C)(C)C)Cc1ccccc1)C(C)C | 170 | > 10000 | 3.2 | 
12 | COC(=O)N[C@H](C(=O)NN(CC[C@@](O)(Cc1ccccc1)C(=O)N[C@H]1c2ccccc2C[C@H]1O)Cc1ccc(-c2cnn(C)c2)cc1)C(C)(C)C | 10 | > 10000 | 1.7 | 
13 | COC(=O)N[C@H](C(=O)NN(CC[C@@](O)(Cc1ccccc1)C(=O)N[C@H]1c2ccccc2C[C@H]1O)Cc1ccc(Br)cc1)C(C)(C)C | 40 | 7900 | 2.9 | clearance [3]: > 300 µL/min/mg; EC50 [4]: 240 nM; Papp [5]: 42 ×10⁻⁶ cm/s; EC50 [6]: 8 nM; EC50 [7]: 44 nM; EC50 [8]: 74 nM; EC50 [9]: 70 nM; Ki [10]: 30 nM
14 | COC(=O)N[C@H](C(=O)NN(CC[C@@](O)(Cc1ccccc1)C(=O)N[C@H]1c2ccccc2C[C@H]1O)Cc1ccc(-c2ccc3c(c2)OCO3)cc1)C(C)(C)C | 3 | 6100 | 8 | 
15 | CNC(=O)[C@@H](NC(=O)[C@@](O)(CCN(Cc1ccc(Br)cc1)NC(=O)[C@@H](NC(=O)OC)C(C)(C)C)Cc1ccccc1)C(C)(C)C | 72 | > 10000 | 1.7 | 
16 | CNC(=O)[C@@H](NC(=O)[C@](O)(CCN(Cc1ccc(Br)cc1)NC(=O)[C@@H](NC(=O)OC)C(C)(C)C)Cc1ccccc1)C(C)C | > 10000 | > 10000 | 1240 | 
17 | COC(=O)N[C@H](C(=O)NN(CC[C@@](O)(Cc1ccccc1)C(=O)N[C@H]1c2ccccc2C[C@H]1O)Cc1ccc(-c2ccccc2)cc1)C(C)(C)C | 8 | > 10000 | 12 | 
18 | COC(=O)N[C@H](C(=O)NN(CC[C@@](O)(Cc1ccccc1)C(=O)N[C@H]1c2ccccc2C[C@H]1O)Cc1ccc(-c2ccccn2)cc1)C(C)(C)C | 7 | > 10000 |  | clearance [3]: 20 µL/min/mg; EC50 [4]: 130 nM; Papp [5]: 3.5 ×10⁻⁶ cm/s; EC50 [6]: 8 nM; EC50 [7]: 7 nM; EC50 [8]: 24 nM; EC50 [9]: 6 nM
19 | COC(=O)N[C@H](C(=O)NN(CC[C@@](O)(Cc1ccccc1)C(=O)N[C@H]1c2ccccc2C[C@H]1O)Cc1ccc(-c2cccnc2)cc1)C(C)(C)C | 9 | 4900 | 1.2 | clearance [3]: > 300 µL/min/mg; EC50 [4]: 600 nM; Papp [5]: 26 ×10⁻⁶ cm/s; EC50 [6]: 10 nM; EC50 [7]: 19 nM; EC50 [8]: 27 nM; EC50 [9]: 14 nM; Ki [10]: 16 nM
20 | COC(=O)N[C@H](C(=O)NN(CC[C@@](O)(Cc1ccccc1)C(=O)N[C@H]1c2ccccc2C[C@H]1O)Cc1ccc(-c2ccncc2)cc1)C(C)(C)C | 3 | > 10000 | 2.3 | 
21 | COC(=O)N[C@H](C(=O)NN(CC[C@@](O)(Cc1ccccc1)C(=O)N[C@H]1c2ccccc2C[C@H]1O)Cc1ccc(-c2cc(F)cc(F)c2)cc1)C(C)(C)C | 13 | > 10000 | 11 | 
22 | COC(=O)N[C@H](C(=O)NN(CC[C@@](O)(Cc1ccccc1)C(=O)N[C@H]1c2ccccc2C[C@H]1O)Cc1ccc(-c2c(C)noc2C)cc1)C(C)(C)C | 5 | > 10000 | 2.8 | 
23 | COC(=O)N[C@H](C(=O)NN(CC[C@@](O)(Cc1ccccc1)C(=O)N[C@H]1c2ccccc2C[C@H]1O)Cc1ccccc1)C(C)(C)C | 190 | > 10000 | 2.3 | 
24 | COC(=O)N[C@H](C(=O)NN(CCc1ccccc1)CC[C@@](O)(Cc1ccccc1)C(=O)N[C@H]1c2ccccc2C[C@H]1O)C(C)(C)C | 6800 |  | 8.2 | 
25 | COCCNC(=O)[C@@H](NC(=O)[C@](O)(CCN(Cc1ccc(Br)cc1)NC(=O)[C@@H](NC(=O)OC)C(C)(C)C)Cc1ccccc1)C(C)C | > 10000 | > 10000 | 2750 | 
26 | COC(=O)N[C@H](C(=O)N[C@@H](Cc1ccccc1)[C@@H](O)CN(Cc1ccc(-c2ccccn2)cc1)NC(=O)[C@@H](NC(=O)OC)C(C)(C)C)C(C)(C)C [ATAZANAVIR] |  |  | 0.5 | 
27 | Cc1cccc(C)c1OCC(=O)N[C@@H](Cc1ccccc1)[C@@H](O)C[C@H](Cc1ccccc1)NC(=O)[C@H](C(C)C)N1CCCNC1=O [LOPINAVIR] | 10 |  |  | 
28 | CC(C)c1nc(CN(C)C(=O)N[C@H](C(=O)N[C@@H](Cc2ccccc2)C[C@H](O)[C@H](Cc2ccccc2)NC(=O)OCc2cncs2)C(C)C)cs1 [RITONAVIR] | 50 |  |  | 
